Measurements taken from ChEMBL document CHEMBL1177845, “Efficient synthesis and identification of novel propane-1,3-diamino bridged CCR5 antagonists with variation on the basic center carrier” (Eur J Med Chem, 2010).

Tests used:
[1] = molecular target: T1, C-C chemokine receptor type 5 (Homo sapiens, UniProt P51681); experiment: Antagonist activity at CCR5 expressed in CHO cells assessed as inhibition of RANTES-stimulated GTPgammaS binding by scintillation proximity assay; type: functional, cell-based
Target sequence in this assay (P51681 whole entry): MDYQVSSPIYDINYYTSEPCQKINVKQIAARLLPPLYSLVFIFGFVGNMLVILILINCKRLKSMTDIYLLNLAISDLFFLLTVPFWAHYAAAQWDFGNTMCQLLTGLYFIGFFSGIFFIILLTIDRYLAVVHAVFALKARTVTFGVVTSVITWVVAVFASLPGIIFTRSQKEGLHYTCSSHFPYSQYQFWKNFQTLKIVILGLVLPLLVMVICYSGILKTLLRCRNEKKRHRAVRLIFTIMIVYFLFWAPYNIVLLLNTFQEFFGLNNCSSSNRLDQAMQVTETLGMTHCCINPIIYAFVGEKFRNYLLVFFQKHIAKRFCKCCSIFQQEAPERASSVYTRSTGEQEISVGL

[2] = molecular target: T1, C-C chemokine receptor type 5; experiment: Antagonist activity at CCR5 expressed in CHO cells assessed as inhibition of RANTES-stimulated GTPgammaS binding at 300 nM by scintillation proximity assay
Target sequence in this assay (P51681 whole entry, looked up): as the sequence (P51681 whole entry) above

[3] = molecular target: T1, C-C chemokine receptor type 5; experiment: Antagonist activity at CCR5 expressed in CHO cells assessed as inhibition of RANTES-stimulated GTPgammaS binding at 30 nM by scintillation proximity assay
Target sequence in this assay (P51681 whole entry, looked up): as the sequence (P51681 whole entry) above

IC50 [1] [µM] | inhibition [2] [%] | inhibition [3] [%] | SMILES
10 | – | – | COC(=O)C1(Cc2ccccc2)CCN(CC[C@H](NC(=O)C2CCC2)c2ccc(C(F)(F)F)cc2)CC1
> 10 | – | – | CC(=O)N(c1ccc(N2CCN(CC[C@H](NC(=O)C3CCCCC3)c3ccc(C(F)(F)F)cc3)CC2)cc1)C(C)C
– | 44 | 35 | CC1(NC(=O)c2cccnc2)CCN(CC[C@H](NC(=O)C2CCCCC2)c2cccc(F)c2)CC1
– | 46 | 21 | CC1(NC(=O)CC23CC4CC(CC(C4)C2)C3)CCN(CC[C@H](NC(=O)C2CCCCC2)c2cccc(F)c2)CC1
– | 33 | 9 | COc1ccc(C(=O)NC2(C)CCN(CC[C@H](NC(=O)C3CCCCC3)c3cccc(F)c3)CC2)cc1
– | 7 | 3 | CC1(NC(=O)c2ccc(C(F)(F)F)cc2)CCN(CC[C@H](NC(=O)C2CCCCC2)c2cccc(F)c2)CC1
– | 95 | 31 | CC1(NC(=O)Cc2ccc(F)cc2)CCN(CC[C@H](NC(=O)C2CCCCC2)c2cccc(F)c2)CC1
> 10 | – | – | COC(=O)C1(Cc2ccccc2)CCN(CC[C@H](NC(=O)C2CCC2)c2cccc3ccccc23)CC1
> 10 | – | – | CC(C)N(Cc1ccccc1)c1ccc(N2CCN(CC[C@H](NC(=O)C3CCCCC3)c3ccc(C(F)(F)F)cc3)CC2)cc1
– | 29 | 6 | CC1(NC(=O)C2CCCCC2)CCN(CC[C@H](NC(=O)C2CCCCC2)c2cccc(F)c2)CC1
> 10 | – | – | O=C(N[C@@H](CCN1CCC(CO)(Cc2ccccc2)CC1)c1ccc(C(F)(F)F)cc1)C1CCC1
– | 97 | 36 | CC1(NC(=O)Cc2ccc(Cl)c(Cl)c2)CCN(CC[C@H](NC(=O)C2CCCCC2)c2cccc(F)c2)CC1
– | 91 | 28 | CC1(NC(=O)Cc2ccc(Cl)cc2)CCN(CC[C@H](NC(=O)C2CCCCC2)c2cccc(F)c2)CC1

SMILES | IC50 [1] [µM] | inhibition [2] [%] | inhibition [3] [%]
Cc1nc2cccnc2n1[C@H]1C[C@H]2CC[C@@H](C1)N2CC[C@H](NC(=O)c1ccc(F)cc1)c1cccc2ccccc12 | 10 | – | –
Cc1nnc(C(C)C)n1[C@H]1C[C@H]2CC[C@@H](C1)N2CC[C@H](NC(=O)COc1ccccc1)c1ccc(C(F)(F)F)cc1 | 0.253 | – | –
